A short description of data set [1]: Photophysical characterization (absorbance, excitation, emission, extinction coefficient, quantum yield). The class given is physicochemical. The note with it: Table 2.
For data set [2] the following is noted: unbound, free DFHBI in liquid buffer; Paige et al., 2011; cited from earlier work.
The conditions of data set [3]: cited from earlier work.
The mark [4] stands for this setting: previously reported value, Table 4.

Where two headings read alike, the source gives them in different places. Marks after values point to notes of the source that are not given here.

On to `CC1=N/C(=C\c2cc(F)c(O)c(F)c2)C(=O)N1C` [DFHBI, (Z)-4-(3,5-difluoro-4-hydroxybenzylidene)-1,2-dimethyl-1H-imidazol-5(4H)-one], for which the “Extinction Coefficient” value in data set [1] is listed as 31,935 M^−1cm^−1. The “Absolute Quantum Yield” value in data set [1] (integrating sphere) is on record as 0.001. Also, the λabs in data set [1] (peak absorbance wavelength) was 418 nm. Besides, the pKa in data set [2] was 5.5. Besides, the “Absolute Quantum Yield” value in data set [3] (previously reported value [1], Table 4) is listed as 0.001^#. Besides, in data set [3] (setting [4]), the λabs was 418^†# nm, the λem is recorded as 489^† nm and the λex is recorded as 423^† nm. Further, the “Reported Quantum Yield” value in data set [3] (previously reported value) was 0.0007^†. The “Relative Quantum Yield” value in data set [3] (reported value (ref 25), Table 2) is 0.0007***.

The term pKa denotes the negative logarithm of the acid dissociation constant.

These data come from US20210047373A1, “BETA BARREL POLYPEPTIDES AND METHODS FOR THEIR USE” (UNIVERSITY OF WASHINGTON, priority 2018, published 2021).
